Non-standard residues stand in square brackets, D forms with d. Residues, ends and D or L forms follow the SMILES beside them.
How the values were obtained:
in vitro = in vitro ADME; conditions: human, plasma
Protocol: A stock solution of 200 μg/ml of peptide in PBS was diluted into 1.5 ml of human plasma or PBS to achieve a final concentration of 10 μg/ml. Of this solution, 50 μl was then dispensed into 200 μl Max Recovery tubes (Axygen Scientific) in triplicate for each time point needed in the study. The tubes were incubated at 37° C. and at the appropriate time point, they were removed from the incubator and 150 μl of extraction solution (75% acetonitrile/25% water+2% formic acid) was added. The tubes were vortexed for 15 sec and then centrifuged at 11,000 RPM for 5 mins at 4° C. Then, 100 μl of the supernatant was transferred into HPLC vials for analysis.
A fixed mobile phase was used so that all of the different charged species of peptide would elute at the same time, allowing a mass measurement of non-degraded material. Injection volume: 10 μl; Column: Phenomenex Aqua C18 5 μM 150 mm×4.6 mm; Flow: 0.8 ml/min; 85% Mobile phase A: 4% formic acid in nanopure water; 15% Mobile phase B: acetonitrile; RT: 1.3 minutes; Stop time: 3.0 minutes. Mass Spectrometer: MS-03 LC/MSD Trap XCT Ultra.

[1] = system: primary cortical neuronal cultures; test: Glutamate excitotoxicity in primary cortical neuronal cultures, neuronal viability by MTS assay; type: cell-based, rat; conditions: Sprague-Dawley, rat, 18 h
Protocol: Neurons were resuspended in Neurobasal (NB; Invitrogen) containing 2% B27 supplement (B27; Invitrogen). Before seeding, culture vessels comprising either a 96-well plastic plate or 24-well plastic plate with 13 mm glass coverslips (ProSciTech, Australia), were coated with poly-D-lysine (50 μg/mL; 70-150K; Sigma) and incubated overnight at room temperature. […] Neurons were plated to obtain approximately 10,000 viable neurons for each well of a 96-well plate, or 200,000 viable neurons per well of a 24-well plate, on day in vitro (DIV) […]. […] On DIV 4, one third of the culture medium was removed and replaced with fresh NB/2% B27 containing the mitotic inhibitor, cytosine arabinofuranoside (Sigma) at 1 μM concentration. On DIV 8, one half of the culture medium was replaced with NB/2% B27.
To induce glutamate excitotoxicity in the cortical neuronal cultures (96-well plate format), 50 μl of conditioned media containing 200 μM glutamate was added to culture wells containing 50 μl conditioned media (100 μM final glutamate concentration). Cultures were incubated at 37° C. in a CO2 incubator for 5 minutes, after which time the media was replaced with 100 μl of 50% NB/2% N2 and 50% balance salt solution (NB/N2:BSS).
Untreated and glutamate-treated control samples received media additions with and without glutamate respectively.
Eighteen hours after glutamate exposure, neuronal cultures were examined by light microscopy for qualitative assessment of neuronal damage. Neuronal viability was quantitatively measured by 3-(4,5,dimethyliazol-2-yl)-5-(3-carboxymethoxy-phenyl)-2-(4-sulfophenyl)-2H-tetrazolium salt (MTS) assay (Promega, Australia). The MTS assay measures the mitochondrial conversion of the tetrazolium salt to a water-soluble brown formazan salt, which is detected spectrophotometrically at 495 nm. MTS absorbance data was converted to reflect proportional cell viability relative to both the untreated and glutamate treated controls. […] All assays were performed with quadruplicate sister neuronal cultures repeated a minimum of four times independently.

in vivo = conditions: male, Sprague-Dawley, rat, iv, 3 mg/kg
Protocol: Male Sprague-Dawley rats (276-310 g) were dosed with peptide by i.v injection via the jugular vein. The calculated dose for each animal was 3 mg/kg of body weight and each isoflurane anaesthetised animal received dosing volumes of 0.1 ml/100 g of body weight of a 3 mg/ml solution. The remaining dosing solutions were subjected to a similar protocol as the solutions that were administered to the animals and were collected pre-labeled Maxymum Recovery (Axygen Scientific) low binding tubes, ready for quantification. Blood samples (0.2 ml) were collected just prior to dosing (pre-dose) and at various time points post-dosing according to the experimental schedule. Blood samples were collected from the jugular vein from the anaesthetized and transferred into 0.5 ml pre-labeled EDTA micro-centrifuge tubes and placed on ice. The tubes were then centrifuged for 5 mins at 3,000 RPM in a bench top microcentrifuge (4° C.). The plasma was transferred to pre-labeled 1.7 ml tubes, stored in a −80° C. freezer prior to analysis by LC-MS.
Analysis: Sample Preparation: 50 μl of plasma was added to 150 μl of precipitating solvent (75% acetonitrile/25% water+2% formic acid) and vortexed for 15 sec. The solution was centrifuged at 11,000 rpm at 4° C. for 5 mins. 100 μl of the supernatant was transferred to a HPLC vial for quantification. […]

[2] = rabbit blood; cited from earlier work

| Molecule | half-life at 10 μg/ml (in vitro) [h] | neuronal viability following glutamate excitotoxicity ([1]; 5 μM) [%] | half-life (in vivo) [h] | neuronal viability following glutamate excitotoxicity ([1]; 1 μM) [%] | in vivo half life [2] |
| --- | --- | --- | --- | --- | --- |
| CC[C@@H](C)[C@@H](NC(=O)[C@@H](CCC(=O)O)NC(=O)[C@@H](CO)NC(=O)[C@@H](CO)NC(=O)[C@@H](CO)NC(=O)[C@@H](CCCCN)NC(=O)[C@@H](CCCNC(=N)N)NC(=O)[C@@H](CCC(=O)O)NC(=O)[C@H](N)CCCNC(=N)N)C(=O)NCC(=O)NCC(=O)N[C@H](CO)C(=O)N[C@H](CCCNC(=N)N)C(=O)N[C@@H](C(=O)N[C@H](CO)C(=O)N[C@H](CCC(N)=O)C(=O)N[C@H](Cc1ccc(O)cc1)C(=O)N[C@H](C)C(=O)NCC(=O)N[C@H](CCCNC(=N)N)C(=O)N[C@H](CCCNC(=N)N)C(=O)N[C@H](CCCNC(=N)N)C(=O)N[C@H](CCC(N)=O)C(=O)N[C@H](CCCNC(=N)N)C(=O)N[C@H](CCCNC(=N)N)C(=O)N[C@H](CCCCN)C(=O)N[C@H](CCCCN)C(=O)N[C@H](CCCNC(=N)N)C(=O)NCC(=O)O)[C@H](C)CC [PYC35D-TAT] (H-[dR][dE][dR][dK][dS][dS][dS][dE][dI]GG[dS][dR][dI][dS][dQ][dY][dA]G[dR][dR][dR][dQ][dR][dR][dK][dK][dR]G-OH; N-terminus and C-terminus assumed) | > 12 | 59 | 0.583 | – | – |
| CC[C@@H](C)[C@@H](NC(=O)[C@@H](CCCCN)NC(=O)[C@H]1CCCN1)C(=O)N[C@H](CO)C(=O)N[C@H](CCC(N)=O)C(=O)N[C@H](Cc1ccc(O)cc1)C(=O)NCC(=O)N[C@H](CCC(N)=O)C(=O)N[C@H](CCCNC(=N)N)C(=O)N[C@H](CCCNC(=N)N)C(=O)N[C@H](CCCNC(=N)N)C(=O)NCC(=O)N[C@H](CCC(N)=O)C(=O)N[C@H](CC(C)C)C(=O)NCC(=O)NCC(=O)N[C@H](CCCNC(=N)N)C(=O)N[C@H](CCCNC(=N)N)C(=O)N[C@H](CCCNC(=N)N)C(=O)N[C@H](CCC(N)=O)C(=O)N[C@H](CCCNC(=N)N)C(=O)N[C@H](CCCNC(=N)N)C(=O)N[C@H](CCCCN)C(=O)N[C@H](CCCCN)C(=O)N[C@H](CCCNC(=N)N)C(=O)NCC(=O)O [PYC36D-TAT] (H-[dP][dK][dI][dS][dQ][dY]G[dQ][dR][dR][dR]G[dQ][dL]GG[dR][dR][dR][dQ][dR][dR][dK][dK][dR]G-OH; N-terminus and C-terminus assumed) | > 12 | 82 | 1.67 | 44 | – |
| tissue plasminogen activator [tPA] | – | – | – | – | a few minutes |
